Measured values as given in patent US20050288222A1, “Methods for enhancing the bioavailability of a drug” (priority 2000, published 2005).
pKd: −log10 of the molar value. ≈ marks a conversion by molar mass, not a printed value. Where “and” joins values, the source holds several entries; their conditions need not be identical. Equal entries are not always repeated. Where two headings read alike, the source gives them in different places. Blank lines part the entries; values can stand above or below the compound they belong to. Non-standard residues stand in square brackets, D forms with d. Residues, ends and D or L forms follow the SMILES beside them. *: point of attachment. X1 = CC(C)C[C@H](C(=O)*)N(C)C

Experiments:
[1] = physchem
[2] = biological target: B-amyloid (Homo sapiens, UniProt P05067); assay: KD of potent B-amyloid aggregation inhibitors (Table II); format: binding
[3] = rat, in vivo
[4] = rat, in vivo; remark: listed apart in the source
Excerpt: The perfused, ipsilateral, left forebrain (choroid plexus removed) was subjected to capillary depletion (as described by Triguero et al., 1990) so as to produce brain supernatant that was void of blood vessels (as determined by alkaline phosphatase measurements).

[5] = rat, in vivo; remark: listed apart in the source
[6] = rat, in vivo; remark: listed apart in the source
Description: (§1) The drug cocktail was infused (100 μL/h) via a cannula in the external carotid artery so that the infusate was picked up by the blood and carried directly to the Circle of Willis/brain (via the left internal carotid artery, PTA occluded). At 30 minutes post cessation of the 10 minute IA infusion the left side of the brain was voided of blood by manually infusing 1 ml of saline via the cannula in the external carotid artery with the common carotid artery now ligated. The perfused left forebrain (choroid plexus removed) was subjected to capillary depiction (as described by Triguero et al., 1990) so as to produce brain supernatant that was void of blood vessels (as determined by alkaline phosphatase measurements).

[7] = in vivo
[8] = Biodistribution of 3H-PPI-558 +/- cyclosporin A (experiment 4, Table III); conditions: for Kidney (expressed as % administered): rat, sac t = 61 min
[9] = in vivo; conditions: male, Sprague-Dawley, rat
Description: as §1

[10] = in vivo
[11] = rat, in vivo; remark: listed apart in the source

Sequence of B-amyloid (P05067 672-711 limits assumed): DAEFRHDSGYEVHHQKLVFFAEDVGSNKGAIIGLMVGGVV

Structure (SMILES): CC(C)C[C@@H](N)C(=O)N[C@@H](C(=O)N[C@H](Cc1ccccc1)C(=O)N[C@H](Cc1ccccc1)C(=O)N[C@H](C)C(N)=O)C(C)C [PPI-465, H-lvffa-NH2]
solubility [1]: 1490 µg/mL (≈ 2510 µM)
pKd [2]: 9.04

Structure (SMILES): CC(C)C[C@@H](N)C(=O)N[C@H](Cc1ccccc1)C(=O)N[C@H](Cc1ccccc1)C(=O)N[C@@H](C(=O)N[C@H](CC(C)C)C(N)=O)C(C)C [PPI-578, H-lffvl-NH2]
solubility [1]: 2500 µg/mL (≈ 3930 µM)
pKd [2]: 9.54

Structure (SMILES): CC(C)C[C@@H](NC(=O)c1ccc(O)cc1)C(=O)N[C@@H](C(=O)N[C@H](Cc1ccccc1)C(=O)N[C@H](Cc1ccccc1)C(=O)N[C@H](C)C(N)=O)C(C)C [PPI-558, 4-Hydroxybenzoyl-D-Leu-D-Val-D-Phe-D-Phe-D-Ala-NH2]
capillary bound level [6]: approx. 250 nM equiv.
capillary bound level [7]: very low levels
solubility [1]: 1 µg/mL (≈ 1.4 µM)
Kidney (expressed as % administered) ([8]; PPI-558/DMPC (1:30) approx. 3 mg/kg IV, without cyclosporin A, MEAN): 0.95 % administered
Kidney (expressed as % administered) ([8]; PPI-558/DMPC (1:30) approx. 3 mg/kg IV, without cyclosporin A, single animals): 0.7 % administered and 1.7 % administered and 0.5 % administered
Kidney (expressed as % administered) ([8]; cyclosporin A 50 mg/kg IV + PPI-558/DMPC (1:30), MEAN): 2.59 % administered
Kidney (expressed as % administered) ([8]; cyclosporin A 50 mg/kg IV + PPI-558/DMPC (1:30), single animals, 50 mg/kg): 2.5 % administered and 2.7 % administered
Kidney FOLD INCREASE ([8]; with cyclosporin A versus without): 3 fold
level at time molar at 0.5 h [9]: > 100 nM
elevation of brain levels in the presence of cyclosporin A [4]: 10 fold
plasma levels in the presence of cyclosporin A [5]: elevated
level at time molar [10]: < 5 nM
Cartass FOLD INCREASE [11]: 4 fold
Colon FOLD INCREASE [11]: 4 fold
Duodenum FOLD INCREASE [11]: 6 fold
Fat FOLD INCREASE [11]: 2 fold
Heart FOLD INCREASE [11]: 3 fold
Ileum FOLD INCREASE [11]: 2 fold
Liver FOLD INCREASE [11]: 0.4 fold
Lung FOLD INCREASE [11]: 1 fold
Muscle FOLD INCREASE [11]: 5 fold
Pancreas FOLD INCREASE [11]: 7 fold
Spleen FOLD INCREASE [11]: 1 fold
Tongue FOLD INCREASE [11]: 5 fold
Urine FOLD INCREASE [11]: 1 fold
blood at sac FOLD INCREASE [11]: 6 fold
levels within the small intestine in the presence of cyclosporin A [11]: higher levels

Structure (SMILES): CC(C)C[C@@H](N)C(=O)N[C@@H](C(=O)N[C@H](Cc1ccccc1)C(=O)N[C@H](Cc1ccccc1)C(=O)N[C@@H](C(N)=O)C(C)C)C(C)C [PPI-657, H-D-Leu-D-Val-D-Phe-D-Phe-D-Val-NH2] (H-[dL][dV][dF][dF][dV]-NH2)
solubility [1]: 970 µg/mL (≈ 1560 µM)
pKd [2]: 9.48

Further lines, results first:

solubility [1]: 180 µg/mL (≈ 271 µM)
Structure (SMILES): CC(C)C[C@H](C(=O)N[C@@H](C(=O)N[C@H](Cc1ccccc1)C(=O)N[C@H](Cc1ccccc1)C(=O)N[C@H](CC(C)C)C(N)=O)C(C)C)N(C)C [PPI-1007, (CH3)2-lvffl-NH2] (X1-[dV][dF][dF][dL]-NH2)

levels within the liver in the presence of cyclosporin A [3]: decreased levels
solubility [1]: 1000 µg/mL (≈ 1540 µM)
elevation of brain levels in the presence of cyclosporin A [4]: 5 fold
plasma levels in the presence of cyclosporin A [5]: elevated
Structure (SMILES): CN[C@H](CC(C)C)C(=O)N[C@@H](C(=O)N[C@H](Cc1ccccc1)C(=O)N[C@H](Cc1ccccc1)C(=O)N[C@H](CC(C)C)C(N)=O)C(C)C [PPI-1019, N-methyl-(D-Leu-D-Val-D-Phe-D-Phe-D-Leu)-NH2]

solubility [1]: 5000 µg/mL (≈ 6660 µM)
Structure (SMILES): CC(C)C[C@@H](N)C(=O)N[C@@H](C(=O)N[C@H](Cc1ccccc1)C(=O)NNC(=O)[C@@H](Cc1ccccc1)NC(=O)[C@H](NC(=O)[C@H](N)CC(C)C)C(C)C)C(C)C [PPI-1125, (H-lvf-NH-)2]
